# Test results reported in patent publication US9624254B2, “Hydroxysafflor yellow pharmaceutical salts” (ZHEJIANG YONGNING PHARMACEUTICAL CO LTD, priority 2013, dated 2017).
# Where “and” joins values, the source holds several entries; their conditions need not be identical. Equal entries are not always repeated. Where two headings read alike, the source gives them in different places.
# Legend:
# [1] = format: physicochemical; settings: for Content: calculated as hydroxysafflor yellow A
# [2] = system: cerebral blood flow; format: in vivo, dog
# Text: 4. Effect on cerebral blood flow of dog: Beagles were used as the study animal. After the dog was anesthetized with sodium pentobarbital, external jugular vein, internal jugular vein and vertebral artery were isolated surgically. The external jugular vein was ligated. Flow probes were placed in internal jugular vein and vertebral artery. Two times of the total blood flow recorded by both probes represented blood supply of the whole brain. At the end of the study, the brain was removed and weighed to calculate blood flow per 100 g of brain tissue.
# [3] = system: acute myocardial infarction among rats; assay: Rat acute myocardial infarction model (coronary ligature): arrhythmia ranking, infarcted area, myocardial enzymes; format: in vivo
# Protocol: Test method • 1. Preparation of rat acute myocardial infarction model: Intraperitoneal anesthesia was performed with 3% sodium pentobarbital, 45 mg/kg. Right femoral artery and vein catheter were inserted for blood pressure monitoring and intravenous administration, respectively. Artificial mechanical ventilation was given through tracheal intubation at a rate of 60 times/min, and with a ventilation volume of about 10 ml/kg. Electrocardiogram (ECG) was recorded by placing needle electrode in limbs. A longitudinal skin incision was made approximately 0.5 cm to left sternal border, followed by blunt dissection of the subcutaneous tissue. The pectoralis major, pectoralis minor, and the intercostal muscle were dissected, ligated and cut with scissors successively. The chest was open from the fourth intercostal space along the left sternal border where apical beat is most significant. Cut the pericardium open with scissors, and clamp the pericardium to bilateral chest wall with hemostatic forceps, to form a pericardial bed and expose vessels on the surface of the left ventricle. 6-0 silk suture was threaded through superficial layer of myocardium (i.e. the anterior descending coronary artery) about 2 mm under the left auricle. […] Arrhythmia ranking: The severity of arrhythmia which occurred within 30 min after coronary ligature was scored. • 3. Myocardial enzyme test: At the end of test, 2 ml of venous blood was taken, and centrifuged under 4° C. and 4000/min for 5 min. The supernatant was taken for myocardial enzyme test. Test items: LDH, AKP, CK. • 4. Measurement of myocardial infarcted area: 4 h after coronary ligature, puncture was performed to the anterior wall of the left ventricle, and carbon ink was injected. Then the animal was sacrificed, and the heart was removed and cleaned with normal saline. Blood and non-myocardial tissue such as vessel and fat were removed. Moisture was dried with absorbent paper. Then the heart was weighed. The heart was cut into sections of about 2 mm from cardiac apex to the base of heart parallel. The perfusion area (perfused with ink) and area at high risk of ischemia (without ink perfusion). […] The nonobstructive heart muscle stained was cut off with scissors, and the non-stained infarcted heart muscle was weighed, to calculate percentage of infarcted heart muscle in the area of heart muscle at risk by weight (weight of infarction area/weight of area at risk*100%). Statistical Analysis:
# All the test data was expressed as mean±standard deviation, statistical test was done with analysis of variance (ANOVA), and the difference was considered significant if P<0.05.
# [4] = system: acute cerebral ischemia model (MCAO); format: in vivo, rat
# [5] = system: blood viscosity; format: in vivo; settings: rabbit
# Protocol: 7. Effect on blood viscosity: Rabbit was treated intravenously, once per day, for 5 days. 2 hours after the last dose, blood was taken from heart and anticoagulated, and tested with blood rheometer directly.
# [6] = system: acute hypoxia; assay: Acute cerebral anoxia, survival in a closed vessel; format: in vivo, mouse; settings: Kunming mice
# Protocol: 5. Effect on acute cerebral anoxia: A study was carried out using Kunming mice […]. The animals were kept in an environment lacking oxygen. The survival duration was recorded to examine whether resistance to acute hypoxia was increased after animals given the medicine. […] Animals were kept in the container until respiration ceased.
# [7] = system: platelet adhered to the silk; format: in vivo, rat
# Protocol: (§1) 6. Anti-platelet aggregation: The study included two stages, instrument testing and in vivo test. […] 4 ml of blood was taken from heart 2 hours after the last dose. The blood was centrifuged under a low speed to obtain platelet-rich […]; and centrifuged under a high speed to obtain […] lacking platelet. Adenosine diphosphate (ADP) and platelet-activating factor (PAF) were chosen as the platelet aggregation inducing agent. And platelet aggregometer was used for testing. […] 2) In vivo method: An arteriovenous short was created with latex tubing in rats. There was surgical silk mounted in the latex tubing. Using characteristics of platelet adhesion, the short was opened to allow blood to flow trans-arteriovenously through the latex tubing. And then silk was removed and weighed. The weight of platelet adhered to the silk was calculated by subtracting the dry weight.
# [8] = system: Willis arteries from beagles (cerebral vascular ring); parameters: species or system dog
# Text: (§2) 1. Selectivity of isolated heart and cerebral vessel from dogs: During this study, Willis arteries and coronary ring from beagles were mounted on ex vivo vascular measuring device. Adjust the tension sensor, and add 10-6 mol/L phenylephrine into the liquid in bath cup, so as to maintain vascular tension. […] Calculate vasoconstriction or vasodilation change value.
# [9] = system: coronary ring from beagles (cardiac vascular ring); parameters: species or system dog
# Text: as §2
# [10] = system: permeability of cerebral vessel; format: in vivo, rat
# Protocol: 3. Effect on vasopermeability in rats: Rats were injected intravenously, once per day, for 7 days. After the last dose, rats were anesthetized, injected intravenously with Evans blue 50 mg/kg. After 5 minutes, bilateral common carotid arteries were ligated. The animals were sacrificed by decapitation after 3 hours. The brain was removed, weighed and immersed in formamide solution. It was placed in an incubator at 45° C. for 72 h. During this period, Evans blue in the cerebral vessel could be leached out into formamide solution. Testing the amount of Evans blue leached out into the formamide solution with spectrophotometer could indicate permeability of cerebral vessel.
# [11] = system: platelet aggregation induced by ADP; assay: Anti-platelet aggregation, instrument testing (platelet aggregometer), ADP; format: in vivo; settings: rabbit, intravenous once per day for 5 days, blood 2 hours after last dose, three doses
# Protocol: as §1
# [12] = system: platelet aggregation induced by PAF; assay: Anti-platelet aggregation, instrument testing (platelet aggregometer), PAF; format: in vivo; settings: rabbit, intravenous once per day for 5 days, blood 2 hours after last dose, three doses
# Protocol: as §1
# [13] = beagles, intravenous, medium and high dose
# [14] = serum, rats, 40 mg/kg intravenously, end of test
# [15] = 10-6 mol/L phenylephrine tension, 10 mg/ml added every 5 min, 4-5 times
compound,measurement,setting,value
O=C(/C=C/c1ccc(O)cc1)C1=C(O)C(O)(C2OC(CO)C(O)C(O)C2O)C([O][Ca][O]C2=C(C3OC(CO)C(O)C(O)C3O)C(=O)C(C(=O)/C=C/c3ccc(O)cc3)=C(O)C2(O)C2OC(CO)C(O)C(O)C2O)=C(C2OC(CO)C(O)C(O)C2O)C1=O (centres unmarked) [Calcium hydroxysafflor yellow A],Total purity,[1]; Accelerated 0 month,1.2%
same,Total purity,[1]; Accelerated 1 month,1.4%
same,Content,[1]; Accelerated 1 month,95.6%
same,Total purity,[1]; Accelerated 2 months,1.9%
same,Content,[1]; Accelerated 2 months,95.1%
same,Total purity,[1]; Accelerated 3 months,2.6%
same,Content,[1]; Accelerated 3 months,94.5%
same,Cerebral blood flow (in words),"[2]; dog, in vivo, iv",significantly increase blood flow
same,Time for which blood flow was maintained,"[2]; dog, in vivo, iv",about 15 min
same,Extent of myocardial infarction compared to hydroxysafflor yellow for injection (in words),"[3]; rat, in vivo",better efficacy in terms of reducing the extent of myocardial infarction
same,Effect on serum LDH and CK (in words),"[3]; rat, in vivo, iv",more significant efficacy
same,Effect on severity of arrhythmia (in words),"[3]; rat, in vivo, iv",more effective
same,AKP (IU/L),"[3]; rat, in vivo, iv, 40 mg/kg",152 ± 24 IU/L
same,Arrhythmia ranking,"[3]; rat, in vivo, iv, 40 mg/kg",1.46 ± 0.3
same,CK (IU/L),"[3]; rat, in vivo, iv, 40 mg/kg",2139 ± 594 IU/L
same,Infarction area,"[3]; rat, in vivo, iv, 40 mg/kg",0.11 ± 0.04 g
same,Infarction rate (%),"[3]; rat, in vivo, iv, 40 mg/kg",29 ± 6 %
same,LDH (IU/L),"[3]; rat, in vivo, iv, 40 mg/kg",463 ± 65 IU/L
same,Area of cerebral infarction,"[4]; rat, in vivo, iv",41.3% and 25.7% and 21.6%
same,Blood viscosity effect compared with nimodipine positive control (in words),[5]; in vivo,superior to the positive control group
same,"Blood viscosity, low shear, medium shear and high shear (in words)","[5]; in vivo, iv",decreased as dose increased
same,Survival duration,[6]; high dose,37 min
same,Survival duration,[6]; low dose,35 min
same,Survival duration,[6]; medium dose,38 min
same,Weight of platelet adhered on the silk,"[7]; rat, in vivo",13.9 ± 1.54 mg and 10.26 ± 1.15 mg and 8.73 ± 1.79 mg
same,Dilation on cerebral vascular ring,[8],69.7%
same,Dilation on cardiac vascular ring,[9],37.1%
same,Evans blue leached out from cerebral vessel (in words),"[10]; rat, in vivo, iv",very significant effect of reducing Evans blue being leached out from cerebral vessel
O=C(/C=C/c1ccc(O)cc1)C1=C(O)C(O)(C2OC(CO)C(O)C(O)C2O)C([O][Mg][O]C2=C(C3OC(CO)C(O)C(O)C3O)C(=O)C(C(=O)/C=C/c3ccc(O)cc3)=C(O)C2(O)C2OC(CO)C(O)C(O)C2O)=C(C2OC(CO)C(O)C(O)C2O)C1=O (centres unmarked) [Magnesium hydroxysafflor yellow A],Total purity,[1]; Accelerated 0 month,1.0%
same,Content,[1]; Accelerated 0 month,97.4%
same,Total purity,[1]; Accelerated 1 month,1.3%
same,Content,[1]; Accelerated 1 month,97.0%
same,Total purity,[1]; Accelerated 2 months,1.8%
same,Content,[1]; Accelerated 2 months,96.4%
same,Total purity,[1]; Accelerated 3 months,2.4%
same,Content,[1]; Accelerated 3 months,95.8%
"COCCOC(=O)C1=C(C)NC(C)=C(C(=O)OC(C)C)C1c1cccc([N+](=O)[O-])c1 (centres unmarked) [nimodipine, reference compound]",Area of cerebral infarction,"[4]; SD rats, positive group, 24 h after MCAO",15.7%
Potassium hydroxysafflor yellow A,Cerebral blood flow (in words),[2]; [13],significantly increase blood flow
same,Time for which blood flow was maintained,[2]; [13],about 15 min
same,Effect against platelet aggregation induced by ADP (in words),[11],very good anti-platelet aggregation effect
same,Effect against platelet aggregation induced by PAF (in words),[12],very good anti-platelet aggregation effect
same,Extent of myocardial infarction compared to hydroxysafflor yellow for injection (in words),[3]; rats,better efficacy in terms of reducing the extent of myocardial infarction
same,Infarction area,"[3]; rats, 40 mg/kg intravenously, 4 h after coronary ligature, NBT staining, mean±SD",0.10 ± 0.02 g
same,Infarction rate (%),"[3]; rats, 40 mg/kg intravenously, weight of infarction area/weight of area at risk*100%",26 ± 9 %
same,Arrhythmia ranking,"[3]; rats, 40 mg/kg intravenously, within 30 min after coronary ligature, mean±SD, n=8",1.38 ± 0.5
same,Effect on serum LDH and CK (in words),"[3]; rats, given intravenously",more significant efficacy
same,Effect on severity of arrhythmia (in words),"[3]; rats, given intravenously, after coronary ligature",more effective
same,AKP (IU/L),[3]; [14],144 ± 19 IU/L
same,CK (IU/L),[3]; [14],2203 ± 530 IU/L
same,LDH (IU/L),[3]; [14],451 ± 78 IU/L
same,Area of cerebral infarction,"[4]; rat, in vivo, iv",38.2% and 27.6% and 21.9%
same,Blood viscosity effect compared with nimodipine positive control (in words),[5]; high dose groups,superior to the positive control group
same,"Blood viscosity, low shear, medium shear and high shear (in words)","[5]; intravenous once per day for 5 days, compared to solvent control group",decreased as dose increased
same,Survival duration,[6]; high dose,36 min
same,Survival duration,[6]; low dose,36 min
same,Survival duration,[6]; medium dose,37 min
same,Weight of platelet adhered on the silk,"[7]; rats, arteriovenous short, high dose",8.91 ± 1.34 mg
same,Weight of platelet adhered on the silk,"[7]; rats, arteriovenous short, low dose",13.6 ± 1.89 mg
same,Weight of platelet adhered on the silk,"[7]; rats, arteriovenous short, medium dose",9.90 ± 1.53 mg
same,Dilation on cerebral vascular ring,[8]; [15],73.1%
same,Dilation on cardiac vascular ring,[9]; [15],31.6%
same,Evans blue leached out from cerebral vessel (in words),"[10]; rats, intravenous once per day for 7 days, high and medium dose groups",very significant effect of reducing Evans blue being leached out from cerebral vessel
